We go through six molecules from paper PMC11272978, “Exploring the central region of amylin and its analogs aggregation: the influence of metal ions and residue substitutions” (Frontiers in Chemistry, 2024).

Broadly, the cell viability is the share of living cells, or the viability signal relative to a control. A higher cell viability goes with better survival.

Entries after “also recorded” stand apart in the source; their conditions may differ. No end group written: not given here.

Data set [1] is described as follows: Thioflavin-T (ThT) aggregation assay. It counts as physicochemical. The settings on record: 40 μM peptide, 20 μM ThT, 50 mM phosphate buffer pH 7.4, 25°C; for ThT fluorescence intensity (aggregation), peptide alone: ex 485/20, em 528/20 nm, read each 5 min; for ThT fluorescence intensity (aggregation) with Cu(II): Cu(II) (Cu(NO3)2) 1:1; for ThT fluorescence intensity (aggregation) with Zn(II): Zn(II) (ZnCl2) 1:1. The procedure:
(§1) Preparation of IAPP fragments solutions and thioflavin-T aggregation assays were performed as described earlier ([Alghrably et al., 2020]). In brief, IAPP fragments were dissolved in 50 mM phosphate buffer to concentrations of 1 mM. Stock solutions were diluted to the desired concentrations, and samples were used fresh each time. It is important to mention that due to the observation of turbidity after dissolving hIAPP-F and Pramlintide-M, both peptides were sonicated for 25 min. All of the aggregation reactions were conducted at 25°C with 40 μM IAPP fragments/mutants (final concentration) in 50 mM phosphate buffer (pH 7.4), and 20 μM thioflavin T in a final volume of 200 μL in each of the 96-well flat-bottom black plate (Corning 3915). We tested the aggregation of each IAPP fragment/mutants alone and with the addition of two metal ions Cu(II) and Zn(II). The metal ions were added to the IAPP fragments in 1:1 ratio. The plate was sealed with transparent film (Duck Brand Crystal Clear Tape, Avon, OH). Thioflavin T fluorescence emission at 528/20 nm (excitation at 485/20) was monitored on a Cytation 5 Multi-Mode Microplate. The measurements were collected by top reading each 5 min after a 3 s shake with an extended gain.

The nature of data set [2]: 1D 1H NMR signal intensity over time (aggregation). The format is physicochemical. The settings on record: 310 K, over 44 hours; for NMR signal intensity over time (signal loss = aggregation), peptide alone: D2O with 20 mM phosphate buffer pH 7.4, 1.5 mM peptide (100 μM for hIAPP-F and Pramlintide-M). The procedure:
All peptides (except hIAPP-F and Pramlintide-M) were dissolved in 99.8% deuterium oxide containing 20 mM of phosphate buffer (pH 7.4). All samples contained 1.5 mM peptide concentration in 600 μL of sample volume except for hIAPP-F and Pramlintide-M, for which the final concentration was 100 μM (both peptides have a high tendency to aggregate at room temperature). The samples’ pH was manually adjusted to 7.4 with 0.1 M NaOD stock solution in 100% D2O. These samples were used for the ^1H and ^13C resonances assignment based on 2D spectra: ^1H-^13C HSQC ([Bodenhausen and Ruben, 1980]) tuned for the aliphatic region, HSQC-TOCSY ([Koz´min´ski and Koz´min´ski, 1999]), ^1H-^1H TOCSY ([Braunschweiler and Ernst, 1983]) mixing time 20 ms and 80 ms, ^1H-^1H ROESY ([Davis, 1985]) mixing time 300 ms and 500 ms. During the hIAPP-F and Pramlintide-M sample preparation, a temperature of 90°C was used to dissolve the peptides. After that, both samples were sonicated during the cooling down process to obtain a homogeneous solution. Spectra were measured immediately after sample preparation. The samples with the addition of metal ions were prepared with the same method as the samples of high tendency aggregation peptides hIAPP-F and Pramlintide-M.
All experiments were performed at a temperature of 310 K. The NMR spectra were acquired on spectrometers of 950, 800, and 700 MHz Bruker Avance NEO equipped with cryogenic TCI probes: • rIAPP-F, hIAPP-F, Pramlintide-M: 700 MHz, ^1H frequency = 700.21 MHz, ^13C frequency = 176.07 MHz • rIAPP-M: 800 MHz, ^1H frequency = 800.18 MHz, ^13C frequency = 201.21 MHz • Pramlintide-F, hIAPP-M: 950 MHz, ^1H frequency = 950.30 MHz, ^13C frequency = 238.96 MHz

Data set [3] can be described thus: Atomic force microscopy (AFM) of fibrils. It counts as physicochemical. The method, then: AFM imaging was conducted in a 256-scanning line at a 1 Hz scanning rate by using Bruker’s Nano Dimension Icon (Bruker Nano Inc., Germany). In this procedure, 200–300 μM hIAPP-F and Pramlintide-M were incubated with and without selected metal ions at 25°C for 24 h. All the samples were dissolved in 50 mM phosphate buffer (pH 7.4). The height of peptide aggregates was obtained from its section tool through Nano Scope Analysis 1.5, and the line position with average effects in the images was selected, except peptides alone in fibril form.

The subject of another data set is HeLa cells. The data set is described as follows: CCK-8 cytotoxicity assay. The format is cell-based, human. The procedure: The cytotoxicity of the different peptides (rIAPP-F, hIAPP-F, Pramlintide-F, hIAPP-M, rIAPP-M, Pramlintide-M, and hIAPP) was tested using CCK-8 assay according to the manufacturer’s protocol. Briefly, cervical carcinoma cells (HeLa) were seeded into 96 well plates 8 × 10^3 cells/well in 100 µL DMEM culture medium with 10% FBS and 1% Penicillin-Streptomycin and incubated in a 5% CO2 incubator at 37°C overnight. After that, the cells were incubated with the different peptides prepared in deionized water at concentrations (200, 400, 600, and 800 μg/mL) for 24 h. In addition, the cytotoxicity of hIAPP-F and Pramlintide-M prepared in 0.5 mg/mL Cu(NO3)2 and ZnCl2 solutions at the same concentrations (200, 400, 600, and 800 μg/mL) was also tested. Cells without any treatment were used as a control, and all the conditions were done in triplicates. After 24 h, the media was discarded from the plate, and cells were washed with PBS. Then, 10 µL of CCK-8 and 90 µL of fresh DMEM media were added to each well and incubated for 4 h. The absorbance was measured at OD = […] using a microplate spectrophotometer (BioRad-xMark Microplate Absorbance Spectrophotometer). The ratio of the absorbance at 570/605 was calculated, and the average absorbance value of wells without cells was considered as blank and subtracted from all wells to cancel the background noise. The cells without any treatment were used as a control, and their mean value was considered 100% viable. The other treated cells’ viability was calculated using the formula: Cells viability % = (Corrected Mean Absorbance of treated cells)/(Corrected Mean Absorbance of control) ×100.

Data set [4] in a line: Turbidity on dissolving the peptide. The format is physicochemical. As to conditions: dissolved in 50 mM phosphate buffer to 1 mM; observation; peptides then sonicated for 25 min. The procedure:
as §1

[5] abbreviates: 200 µM peptide alone, phosphate buffer pH 7.4, 25°C, 24 h, cross-section profile.
The mark [6] stands for this setting: 200 µM peptide, phosphate buffer pH 7.4, 25°C, 24 h.
Where [7] appears, read: peptide:Cu(II) 1:1, 200 µM, phosphate buffer pH 7.4, 24 h.

On to “SNNFGAILPP [hIAPP-M, custom-designed mutated fragment of human amylin, last two serins mutated with prolines]”, for which, in data set [1], the “ThT fluorescence intensity (aggregation), peptide alone” value is reported as “no increase in fluorescence intensity; also recorded: did not show any increase in the fluorescence intensity”; the “ThT fluorescence intensity (aggregation) with Cu(II)” value is on record as “neither metal ions Cu(II) nor Zn(II) have any influence on the aggregation rate”; the “ThT fluorescence intensity (aggregation) with Zn(II)” value is listed as “neither metal ions Cu(II) nor Zn(II) have any influence on the aggregation rate”. In data set [2], the “NMR signal intensity over time (signal loss = aggregation), peptide alone” value is listed as “no signal loss was observed over time”.

Regarding `CC[C@H](C)[C@H](NC(=O)[C@H](C)NC(=O)CNC(=O)[C@H](Cc1ccccc1)NC(=O)[C@H](CC(N)=O)NC(=O)[C@H](CC(N)=O)NC(=O)[C@H](CO)NC(=O)[C@H](CO)NC(=O)[C@H](Cc1c[nH]cn1)NC(=O)[C@@H](NC(=O)[C@H](CC(C)C)NC(=O)[C@H](Cc1ccccc1)NC(=O)[C@H](CC(N)=O)NC(=O)[C@H](C)NC(=O)[C@H](CC(C)C)NC(=O)[C@H](CCCNC(=N)N)NC(=O)[C@H](CCC(N)=O)NC(=O)[C@@H](NC(=O)[C@H](C)NC(=O)[C@@H]1CSSC[C@H](NC(=O)[C@@H](N)CCCCN)C(=O)N[C@@H](CC(N)=O)C(=O)N[C@@H]([C@@H](C)O)C(=O)N[C@@H](C)C(=O)N[C@@H]([C@@H](C)O)C(=O)N1)[C@@H](C)O)C(C)C)C(=O)N[C@@H](CC(C)C)C(=O)N[C@@H](CO)C(=O)N[C@@H](CO)C(=O)N[C@H](C(=O)N[C@@H](CC(N)=O)C(=O)N[C@H](C(=O)NCC(=O)N[C@@H](CO)C(=O)N[C@@H](CC(N)=O)C(=O)N[C@H](C(=O)N[C@@H](Cc1ccc(O)cc1)C(N)=O)[C@@H](C)O)C(C)C)[C@@H](C)O` [hIAPP], in data set [3] (setting [5]), the “diameter of helical fibrils (AFM)” value is given as 5–6 nm and the “diameter of ribbon fibrils (AFM)” value was “around 2 nm”. The “fibril length (AFM), some fibrils, peptide alone” value in data set [3] (200 µM peptide alone, phosphate buffer pH 7.4, 24 h, fibrils vary in length) is recorded as above 2 µm. The “fibril morphology (AFM), peptide alone” value in data set [3] (setting [6]) is reported as “relatively short worm-like fibrils”. In data set [3] (setting [7]), the “average fibril length (AFM) with Cu(II)” value is “less than 2 µm”, the “fibril diameter (AFM) with Cu(II)” value is recorded as 2–3 nm and the “fibril morphology (AFM) with Cu(II)” value is on record as “unique looping structure”. In the data set with HeLa cells (HeLa cells, 200, 400, 600 and 800 μg/mL, 24 h, CCK-8, n = 3), the “effect on cell viability, peptide alone” value is listed as “highest level of toxicity”. Besides, the “cell viability at 400 μg/mL” value in the data set with HeLa cells (HeLa cells, 24 h, CCK-8, peptide in deionized water, triplicates) amounted to 0%.

In the case of “SNNLGPVLPP [rIAPP-F, fragment derived from rat amylin, central region]”, in data set [1], the “ThT fluorescence intensity (aggregation), peptide alone” value was “did not show any increase in the fluorescence intensity”; the “ThT fluorescence intensity (aggregation) with Cu(II)” value was “neither metal ions Cu(II) nor Zn(II) have any influence on the aggregation rate”; the “ThT fluorescence intensity (aggregation) with Zn(II)” value is recorded as “neither metal ions Cu(II) nor Zn(II) have any influence on the aggregation rate”. Moreover, in data set [2], the “NMR signal intensity over time (signal loss = aggregation), peptide alone” value is “no signal loss was observed over time”.

As for “SNNLGPILPP [rIAPP-M, custom-designed mutated fragment of rat amylin]”, in data set [1], the “ThT fluorescence intensity (aggregation), peptide alone” value was “no increase in fluorescence intensity; also recorded: did not show any increase in the fluorescence intensity”; the “ThT fluorescence intensity (aggregation) with Cu(II)” value was “neither metal ions Cu(II) nor Zn(II) have any influence on the aggregation rate”; the “ThT fluorescence intensity (aggregation) with Zn(II)” value is given as “neither metal ions Cu(II) nor Zn(II) have any influence on the aggregation rate”. Also, in data set [2], the “NMR signal intensity over time (signal loss = aggregation), peptide alone” value is reported as “no signal loss was observed over time”.

Take SNNFGAILSS [hIAPP-F]: in data set [1], the “time to reach saturation phase (ThT), peptide alone” value was around 2.5 h; the “ThT fluorescence intensity (aggregation) with Cu(II)” value was “completely inhibited the aggregation”; the “ThT fluorescence intensity (aggregation) with Zn(II)” value is listed as “increased the fluorescence intensity”. The “time to reach saturation phase (ThT) with Zn(II)” value in data set [1] (Zn(II) 1:1) is on record as around 2.5 h. In data set [3] (setting [6]), the “fibril morphology (AFM), peptide alone” value is given as “twisted fibril”. Besides, the “fibril diameter (AFM), peptide alone” value in data set [3] (200 µM peptide, phosphate buffer pH 7.4, 25°C, 24 h, profile analysis) was “approximately 6 nm”. In addition, the “fibril diameter (AFM) with Zn(II)” value in data set [3] (peptide:Zn 1:1, 200 µM, phosphate buffer pH 7.4, 24 h) is reported as “same diameter as the matured helical-structured fibrils”. Moreover, the “NMR signal intensity deterioration with Zn(II)” value in data set [2] (100 μM peptide, pH 7.4, with Zn(II)) is reported as “occurred faster in the presence of Zn(II)”. For the same molecule, the “NMR signal intensity over time (signal loss = aggregation), peptide alone” value in data set [2] is reported as “decreased over time”. For the same molecule, the “cell viability at 800 μg/mL” value in the data set with HeLa cells (HeLa cells, 24 h, CCK-8, peptide in deionized water, highest concentration tested, triplicates) is given as 60%. Also, in the data set on HeLa cells (HeLa cells, peptide 200-800 μg/mL prepared in 0.5 mg/mL Cu(NO3)2, 24 h, CCK-8, n = 3), the “cell viability, peptide-Cu(II) complex” value was “high cell viability”. In addition, in the data set on HeLa cells (HeLa cells, peptide 200-800 μg/mL prepared in 0.5 mg/mL ZnCl2, 24 h, CCK-8, n = 3), the “cell viability / proliferation, peptide with Zn(II)” value is given as “high cell proliferation rate”. In data set [4], the turbidity after dissolving result was “turbidity”.

Turning to “SNNFGPILPP [Pramlintide-F, fragment derived from pramlintide, central region]”, in data set [1], the “ThT fluorescence intensity (aggregation), peptide alone” value is “no increase in fluorescence intensity; also recorded: did not show any increase in the fluorescence intensity”; the “ThT fluorescence intensity (aggregation) with Cu(II)” value is “neither metal ions Cu(II) nor Zn(II) have any influence on the aggregation rate”; the “ThT fluorescence intensity (aggregation) with Zn(II)” value is reported as “neither metal ions Cu(II) nor Zn(II) have any influence on the aggregation rate”. Besides, the “NMR signal intensity over time (signal loss = aggregation), peptide alone” value in data set [2] is “no signal loss was observed over time”.
